{"source": "patent US11738001B2", "about": "“Pharmaceutical combinations and methods for the treatment of diabetes and associated disorders” (OTAGO INNOVATION LIMITED, priority 2017, dated 2023)", "key": {"solubility": {"experiment": "solubility", "type": "physicochemical", "settings": "pH7 buffer solution"}, "[1]": {"experiment": "stability of extract and butein in vitro (RPLC)", "type": "physicochemical", "description": "Experiments were carried out on dissolving/dispersing Dahlia ‘Ruskin Diane’ extract into aqueous buffer. […] To confirm the cause of instability of the buffered extract, the stability of butein was assessed in aqueous buffer at pH7 (butein was stable at pH4). […] By contrast, butein was stable when diluted into EtOH and stored under ambient conditions (FIG. 16). […] The conversion of butein to sulfuretin is an oxidative cyclisation."}, "[2]": {"system": "diet-induced obese (DIO) mice", "experiment": "intraperitoneal glucose tolerance test (ipGTT), acute oral treatment (Experiments 1-5)", "type": "in vivo, C57BL/6 mice", "settings": "HFD 4 weeks", "description": "(§1) For all experiments, 12-14 weeks old male C57BL/6 mice were obtained from the University of Otago animal facility. All procedures were approved by the University of Otago Animal Ethics Committee. Mice were housed individually under a 12:12 h light/dark cycle and ambient temperature was 23° C. Animals had either access to low-fat diet (LFD, containing 10% fat; cat. no. D12450B; Research Diets) or high-fat diet (HFD, containing 60% fat; cat. No. D12492; Research Diets) for a duration of 4 weeks, and water ad libitum. For each experiment a new cohort of animals was employed.\nFor all experiments, the formulations were prepared by forming an ethanol solution of the selected active ingredient(s), i.e. B, I or S individually, the mix or the extract, and then diluting to the desired concentration with 0.9 wt % NaCl aqueous solution.\nTo investigate whether the compounds either individually, a mixture of all three compounds (B, S and I; hereinafter referred to as “mix”) or the total extract of yellow Dahlia ‘Ruskin Diane’ petals acutely affect glucose homeostasis, intraperitoneal glucose tolerance tests (ipGTTs) were performed in diet-induced obese (DIO) mice as a model to mimic human prediabetes and impairments in glucose metabolism. Individual compounds, the mix or the total extract were dissolved in 0.9% NaCl containing 5% ethanol and administered orally. Mice (n=7-8/group) were fed either a high fat diet (HFD) or respective low fat diet (LFD) for 4 weeks, fasted for 16 h and received the different compounds/combinations or vehicle (0.9% NaCl containing 5% ethanol) by oral gavage. For example, for administration to a 50 g mouse, an oral gavage having a volume of 500 μl was prepared, the oral gavage contained 500 μg of extract or 50 μg of compound(s). The volume of the gavage administered was adjusted based on the weight of the mouse subject. Glucose (1.5 g/kg body weight; dissolved in 0.9% NaCl) was injected intraperitoneally (i.p.) 60 minutes after oral gavage treatment, and an ipGTT was performed. Blood glucose levels were measured using a commercially available glucometer (Accu-Check Performa; Roche) whilst truncating the tip of the tail with a fresh scalpel blade. For statistical validation, the area under the curve (AUC) was calculated.\nThese experiments establish dose responses of the individual compounds using different concentrations (20, 10, 3.3, 1, 0.33 mg/kg body weight), the mix (20, 10, 3.3, 1, 0.33 mg/kg body weight) or the extract (50, 20, 10, 3.3, 1 mg/kg) to determine the highest non-effective dose to allow for testing of synergism in combination with commercially available diabetes drugs in subsequent experiments. Mice were fed either LFD or HFD 4 weeks (Experiments 4 and 5). After mice were food deprived for 16 hours, an pGTT was carried out as previously described.\n(§2) Data were analysed by one-way ANOVA or repeated measures ANOVA followed by multiple comparison test, as appropriate, using GraphPad Prism 5 software (Graphpad Software, Inc.). The results are presented as means ±SEM, and differences were considered significant if p≤0.05."}, "[3]": {"system": "diet-induced obese (DIO) mice", "experiment": "ipGTT after chronic metformin or pramlintide, alone or combined with the mix (Experiments 6-9)", "type": "in vivo, C57BL/6 mice", "description": "as §1\nSeparate cohorts of mice were treated with the respective control injections. Mice were fasted for 16 h and an ipGTT was performed as described.\nAfter chronic treatment with the well described antidiabetic drugs mice were fasted for 16 h and received the mix acutely (0.33 mg/kg; containing 5% ethanol). 60 minutes later we carried out an ipGTT as described previously.\nas §2"}, "[4]": {"system": "phosphorylation of AKT (pAKT)", "experiment": "central insulin signalling: pAKT immunoreactive cells in the arcuate nucleus (Experiment 10)", "type": "in vivo, C57BL/6 mice", "settings": "insulin 1 mg/kg 15 min before perfusion; LFD and HFD fed mice vs vehicle-injected", "description": "To identify a mode of action of how the compounds, formulations and the extract affect glucose homeostasis, effects on central insulin signalling by measuring phosphorylation of AKT (pAKT) were investigated. AKT is the main target of insulin in the arcuate nucleus of the hypothalamus. To assess the degree of insulin action in the hypothalamus, phosphorylated AKT positive cells were counted. Mice were fed LFD or HFD for 4 weeks, fasted for 16 h and bodyweight matched. Sixty minutes before transcardial perfusion they received B (10 mg/kg), I (10 mg/kg), S (10 mg/kg), the mix (3.3 mg/kg of each compound), the extract (10 mg/kg) or vehicle (0.9% NaCl containing 5% ethanol) by oral gavage. Additionally, mice received an insulin (1 mg/kg) or vehicle injection 15 minutes before transcardial perfusion. Immunohistochemistry was carried out on mouse brain coronal cryosections as described previously in Benzler J, et al. Diabetes. […]\nTo investigate the molecular mechanisms and to identify the molecular targets of the mix and the extract, mice were fed either a HFD or LFD for 4 weeks followed by treatment with the mix (3.3 mg/kg body weight each) or the extract (10 mg/kg) acutely by oral gavage. […] The target protein of the insulin signalling pathway, pAKT, was visualized by immunohistochemistry and quantified by counting pAKT immunoreactive cells."}, "[5]": {"settings": "Experiment 1: 10 mg/kg (mix: 3.3 mg/kg of each compound) oral gavage 1 h before ipGTT, vs HFD control"}, "[6]": {"settings": "Experiment 3: 3.3 mg/kg (each) orally 1 h before ipGTT"}}}
{"compound": "O=C(/C=C/c1ccc(O)c(O)c1)c1ccc(O)cc1O", "note": "[B, Butein]", "values": [{"measurement": "solubility", "setting": "solubility", "value": "limited solubility"}, {"measurement": "stability", "setting": "[1]; EtOH or DMSO solutions diluted into aqueous buffer at pH7, room temperature", "value": "linear (zero order kinetics) conversion of butein to sulfuretin over time"}, {"measurement": "stability", "setting": "[1]; aqueous buffer pH4", "value": "stable"}, {"measurement": "rate of conversion to sulfuretin", "setting": "[1]; attempts to exclude oxygen", "value": "slowed the reaction"}, {"measurement": "stability", "setting": "[1]; diluted into EtOH and stored under ambient conditions", "value": "stable"}, {"measurement": "rate of conversion to sulfuretin", "setting": "[1]; excluding light and adding a radical inhibitor", "value": "no effects on reaction rate"}, {"measurement": "glucose tolerance in ipGTT", "setting": "[2]; [5]", "value": "did not improve glucose tolerance"}, {"measurement": "glucose tolerance in ipGTT", "setting": "[2]; Experiment 2: 3.3 mg/kg of each compound orally 1 h before ipGTT, vs vehicle treated HFD mice", "value": "no effect on glucose tolerance"}]}
{"compound": "O=C(/C=C/c1ccc(O)cc1)c1ccc(O)cc1O", "note": "[I, Isoliquiritigenin]", "values": [{"measurement": "stability (concentration over time)", "setting": "[1]", "value": "decreased in concentration much more slowly"}, {"measurement": "glucose tolerance in ipGTT", "setting": "[2]; [5]", "value": "trend towards an improved glucose homeostasis"}, {"measurement": "glucose tolerance in ipGTT", "setting": "[2]; [6]", "value": "improved glucose tolerance"}]}
{"compound": "O=C1/C(=C/c2ccc(O)c(O)c2)Oc2cc(O)ccc21", "note": "[S, Sulfuretin]", "values": [{"measurement": "glucose tolerance in ipGTT", "setting": "[2]; [5]", "value": "significantly improve glucose tolerance"}, {"measurement": "glucose tolerance in ipGTT", "setting": "[2]; [6]", "value": "improved glucose tolerance"}]}
{"compound": "CN(C)C(=N)N=C(N)N", "note": "[metformin]", "values": [{"measurement": "glucose tolerance in ipGTT", "setting": "[3]; Experiment 6: 300 mg/kg/d oral, twice daily, last 7 days, p=0.004 vs HFD control", "value": "improved glucose tolerance"}, {"measurement": "highest dose that did not improve glucose tolerance", "setting": "[3]; Experiment 6: oral gavage twice daily for last 7 days, HFD 4 weeks", "value": 100, "unit": "mg/kg body weight"}]}
{"compound": "CC[C@H](C)[C@H](NC(=O)[C@@H]1CCCN1C(=O)CNC(=O)[C@H](Cc1ccccc1)NC(=O)[C@H](CC(N)=O)NC(=O)[C@H](CC(N)=O)NC(=O)[C@H](CO)NC(=O)[C@H](CO)NC(=O)[C@H](Cc1c[nH]cn1)NC(=O)[C@@H](NC(=O)[C@H](CC(C)C)NC(=O)[C@H](Cc1ccccc1)NC(=O)[C@H](CC(N)=O)NC(=O)[C@H](C)NC(=O)[C@H](CC(C)C)NC(=O)[C@H](CCCNC(=N)N)NC(=O)[C@H](CCC(N)=O)NC(=O)[C@@H](NC(=O)[C@H](C)NC(=O)[C@@H]1CSSC[C@H](NC(=O)[C@@H](N)CCCCN)C(=O)N[C@@H](CC(N)=O)C(=O)N[C@@H]([C@@H](C)O)C(=O)N[C@@H](C)C(=O)N[C@@H]([C@@H](C)O)C(=O)N1)[C@@H](C)O)C(C)C)C(=O)N[C@@H](CC(C)C)C(=O)N1CCC[C@H]1C(=O)N1CCC[C@H]1C(=O)N[C@H](C(=O)N[C@@H](CC(N)=O)C(=O)N[C@H](C(=O)NCC(=O)N[C@@H](CO)C(=O)N[C@@H](CC(N)=O)C(=O)N[C@H](C(=O)N[C@@H](Cc1ccc(O)cc1)C(N)=O)[C@@H](C)O)C(C)C)[C@@H](C)O", "note": "[pramlintide]", "values": [{"measurement": "glucose tolerance in ipGTT", "setting": "[3]; Experiment 8: 1000 μg/kg/d s.c. twice daily for 5 days, p=0.0497 vs vehicle HFD", "value": "improved glucose tolerance"}, {"measurement": "highest non-effective dose", "setting": "[3]; Experiment 8: s.c. twice daily for last 5 days, HFD 4 weeks", "value": 200, "unit": "μg/kg/d body weight"}, {"measurement": "glucose tolerance in ipGTT", "setting": "[3]; Experiment 8: the other concentrations (200, 40, 8, 1.6 μg/kg/d s.c.)", "value": "no significant effect on glucose homeostasis"}, {"measurement": "glucose tolerance in ipGTT", "setting": "[3]; Experiment 9: pramlintide 200 μg/kg/d s.c. last 5 days and/or mix 0.33 mg/kg oral 1 h before ipGTT, vs HFD vehicle", "value": "neither pramlintide alone at 200 μg/kg/d body weight (FIG. 9A) nor the mix at 0.33 mg/kg body weight (FIG. 9B) was able to improve glucose tolerance"}]}
{"compound": "Insulin: insulin (1 mg/kg) injected to activate the insulin signalling pathway", "values": [{"measurement": "pAKT positive cells in the arcuate nucleus", "setting": "[4]", "value": "markedly increased pAKT positive cells"}]}
